Biological target: T1, HNE (human neutrophil elastase) (Homo sapiens, UniProt P08246)
T1 construct: purchased Elastin Products (Owensville, Mo., USA) SE563
T1 sequence (P08246 30-267): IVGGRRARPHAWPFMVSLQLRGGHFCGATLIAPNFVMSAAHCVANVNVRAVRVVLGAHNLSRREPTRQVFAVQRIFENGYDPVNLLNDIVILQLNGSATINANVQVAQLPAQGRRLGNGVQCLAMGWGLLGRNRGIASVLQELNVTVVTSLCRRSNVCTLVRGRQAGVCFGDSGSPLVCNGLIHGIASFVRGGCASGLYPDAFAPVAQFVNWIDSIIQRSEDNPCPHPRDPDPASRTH
Assay: Elastase enzyme in-vitro inhibition assay
Assay type: biochemical
Details: HNE 20 nM, 15 min incubation at room temperature, substrate MeOSuc-AAPV-AMC 100 μM, PBS buffer
Protocol: HNE were purchased from Elastin Products (Owensville, Mo., USA) with catalog number SE563. Fixed concentrations of HNE (20 nM) were incubated with various concentrations of inhibitors in PBS buffer in opaque 96-well plates. After 15 min incubation at room temperature, the corresponding fluorescent substrates MeOSuc-AAPV-AMC (Merck Millipore) were added to each well at final concentration 100 μM. Fluorescence was monitored on a Molecular Devices Spectramax fluorescence plate reader at 460 nm with excitation at 380 nm for 30 min. Residual enzyme activity was calculated using the slope of fluorescence increase in the first 10 min. Percentage of enzyme inhibition was plotted using GraphPad Prism 6 software (GraphPad Prism, La Jolla, Calif., USA). The IC50 value and Ki value was calculated using the Morrison tight-binding equation provided by the software.

| Compound | IC50 |
| --- | --- |
| Cc1c(-c2ccnn2C)cc(C(=O)NCCOCCOCCNC(=O)NCCCCNC(=O)NCCOCCOCCNC(=O)c2cc(-c3ccnn3C)c(C)n(-c3cccc(C(F)(F)F)c3)c2=O)c(=O)n1-c1cccc(C(F)(F)F)c1 [Compound 2] | 150 to 1000 nM |
| Cc1c(-c2ccnn2-c2ccc(C#N)cc2)cc(C(=O)NCCOCCOCCOCCOCCNC(=O)C(=O)NCCOCCOCCOCCOCCNC(=O)c2cc(-c3ccnn3-c3ccc(C#N)cc3)c(C)n(-c3cccc(C(F)(F)F)c3)c2=O)c(=O)n1-c1cccc(C(F)(F)F)c1 [Compound 7] | 150 to 1000 nM |
| Cc1c(-c2ccnn2-c2ccc(C#N)cc2)cc(C(=O)NCCOCCOCCOCCNC(=O)NCCCCNC(=O)NCCOCCOCCOCCNC(=O)c2cc(-c3ccnn3-c3ccc(C#N)cc3)c(C)n(-c3cccc(C(F)(F)F)c3)c2=O)c(=O)n1-c1cccc(C(F)(F)F)c1 [Compound 11] | 150 to 1000 nM |
| Cc1c([S+]([O-])c2ccc(C#N)cc2)cc(C(=O)NCCOCCOCCOCCOCCNC(=O)NCCCCNC(=O)NCCOCCOCCOCCOCCNC(=O)c2cc([S+]([O-])c3ccc(C#N)cc3)c(C)n(-c3cccc(C(F)(F)F)c3)c2=O)c(=O)n1-c1cccc(C(F)(F)F)c1 (centres unmarked) [Compound 15] | < 150 nM |
| Cc1c([S+]([O-])c2ccc(C#N)cc2)cc(C(=O)NCCOCCOCCOCCOCCNC(=O)CCC(=O)NCCOCCOCCOCCOCCNC(=O)c2cc([S+]([O-])c3ccc(C#N)cc3)c(C)n(-c3cccc(C(F)(F)F)c3)c2=O)c(=O)n1-c1cccc(C(F)(F)F)c1 (centres unmarked) [Compound 16] | < 150 nM |
| Cc1c([S+]([O-])c2ccc(C#N)cc2)cc(C(=O)NCCOCCOCCOCCNC(=O)NCCCCNC(=O)NCCOCCOCCOCCNC(=O)c2cc([S+]([O-])c3ccc(C#N)cc3)c(C)n(-c3cccc(C(F)(F)F)c3)c2=O)c(=O)n1-c1cccc(C(F)(F)F)c1 (centres unmarked) [Compound 17] | 150 to 1000 nM |
| Cc1c([S+]([O-])c2ccc(C#N)cc2)cc(C(=O)NCCOCCOCCOCCNC(=O)CCC(=O)NCCOCCOCCOCCNC(=O)c2cc([S+]([O-])c3ccc(C#N)cc3)c(C)n(-c3cccc(C(F)(F)F)c3)c2=O)c(=O)n1-c1cccc(C(F)(F)F)c1 (centres unmarked) [Compound 18] | < 150 nM |
| Cc1c([S+]([O-])c2ccc(C#N)cc2)cc(C(=O)NCCOCCOCCNC(=O)C(=O)NCCOCCOCCNC(=O)c2cc([S+]([O-])c3ccc(C#N)cc3)c(C)n(-c3cccc(C(F)(F)F)c3)c2=O)c(=O)n1-c1cccc(C(F)(F)F)c1 (centres unmarked) [Compound 19] | < 150 nM |
| Cc1c([S+]([O-])c2ccc(C#N)cc2)cc(C(=O)NCCOCCOCCNC(=O)NCCCCNC(=O)NCCOCCOCCNC(=O)c2cc([S+]([O-])c3ccc(C#N)cc3)c(C)n(-c3cccc(C(F)(F)F)c3)c2=O)c(=O)n1-c1cccc(C(F)(F)F)c1 (centres unmarked) [Compound 20] | 150 to 1000 nM |

The next lines start with the values.

| IC50 | Compound |
| --- | --- |
| < 150 nM | CC(C)C(NC(=O)[C@@H]1CCCN1C(=O)[C@@H](NC(=O)c1ccc(C(=O)NCCOCCOCCNC(=O)NCCCCNC(=O)NCCOCCOCCNC(=O)c2ccc(C(=O)N[C@H](C(=O)N3CCC[C@H]3C(=O)NC(C(=O)C(F)(F)F)C(C)C)C(C)C)cc2)cc1)C(C)C)C(=O)C(F)(F)F (some centres unmarked) [Compound 1] |
| < 150 nM | Cc1c(-c2ccnn2-c2ccc(C#N)cc2)cc(C(=O)NCCOCCOCCNC(=O)NCCOCCOCCNC(=O)c2cc(-c3ccnn3-c3ccc(C#N)cc3)c(C)n(-c3cccc(C(F)(F)F)c3)c2=O)c(=O)n1-c1cccc(C(F)(F)F)c1 [Compound 3] |
| < 150 nM | Cc1c(-c2ccnn2-c2ccc(C#N)cc2)cc(C(=O)NCCOCCOCCOCCOCCNC(=O)NCCCCNC(=O)NCCOCCOCCOCCOCCNC(=O)c2cc(-c3ccnn3-c3ccc(C#N)cc3)c(C)n(-c3cccc(C(F)(F)F)c3)c2=O)c(=O)n1-c1cccc(C(F)(F)F)c1 [Compound 4] |
| < 150 nM | Cc1c(-c2ccnn2-c2ccc(C#N)cc2)cc(C(=O)NCCOCCOCCOCCOCCNC(=O)CCC(=O)NCCOCCOCCOCCOCCNC(=O)c2cc(-c3ccnn3-c3ccc(C#N)cc3)c(C)n(-c3cccc(C(F)(F)F)c3)c2=O)c(=O)n1-c1cccc(C(F)(F)F)c1 [Compound 5] |
| < 150 nM | Cc1c(-c2ccnn2-c2ccc(C#N)cc2)cc(C(=O)NCCOCCOCCOCCOCCNC(=O)NCCOCCOCCOCCOCCNC(=O)c2cc(-c3ccnn3-c3ccc(C#N)cc3)c(C)n(-c3cccc(C(F)(F)F)c3)c2=O)c(=O)n1-c1cccc(C(F)(F)F)c1 [Compound 6] |
| < 150 nM | Cc1c(-c2ccnn2-c2ccc(C#N)cc2)cc(C(=O)NCCOCCOCCNC(=O)CCC(=O)NCCOCCOCCNC(=O)c2cc(-c3ccnn3-c3ccc(C#N)cc3)c(C)n(-c3cccc(C(F)(F)F)c3)c2=O)c(=O)n1-c1cccc(C(F)(F)F)c1 [Compound 8] |
| < 150 nM | Cc1c(-c2ccnn2-c2ccc(C#N)cc2)cc(C(=O)NCCOCCOCCNC(=O)C(=O)NCCOCCOCCNC(=O)c2cc(-c3ccnn3-c3ccc(C#N)cc3)c(C)n(-c3cccc(C(F)(F)F)c3)c2=O)c(=O)n1-c1cccc(C(F)(F)F)c1 [Compound 9] |
| < 150 nM | Cc1c(-c2ccnn2-c2ccc(C#N)cc2)cc(C(=O)NCCOCCOCCOCCNC(=O)NCCOCCOCCOCCNC(=O)c2cc(-c3ccnn3-c3ccc(C#N)cc3)c(C)n(-c3cccc(C(F)(F)F)c3)c2=O)c(=O)n1-c1cccc(C(F)(F)F)c1 [Compound 10] |
| < 150 nM | Cc1c(-c2ccnn2-c2ccc(C#N)cc2)cc(C(=O)NCCOCCOCCOCCNC(=O)CCC(=O)NCCOCCOCCOCCNC(=O)c2cc(-c3ccnn3-c3ccc(C#N)cc3)c(C)n(-c3cccc(C(F)(F)F)c3)c2=O)c(=O)n1-c1cccc(C(F)(F)F)c1 [Compound 12] |
| < 150 nM | Cc1c(-c2ccnn2-c2ccc(C#N)cc2)cc(C(=O)NCCOCCOCCOCCNC(=O)C(=O)NCCOCCOCCOCCNC(=O)c2cc(-c3ccnn3-c3ccc(C#N)cc3)c(C)n(-c3cccc(C(F)(F)F)c3)c2=O)c(=O)n1-c1cccc(C(F)(F)F)c1 [Compound 13] |
| < 150 nM | Cc1c(-c2ccnn2-c2ccc(C#N)cc2)cc(C(=O)NCCOCCOCCNC(=O)NCCCCNC(=O)NCCOCCOCCNC(=O)c2cc(-c3ccnn3-c3ccc(C#N)cc3)c(C)n(-c3cccc(C(F)(F)F)c3)c2=O)c(=O)n1-c1cccc(C(F)(F)F)c1 [Compound 14] |

— patent US20170144998A1, “ELASTASE INHIBITORS” (The California Institute for Biomedical Research, priority 2014, published 2017)
